How the values were obtained:
[1] = test system: AMPA, NMDA and kainate receptors, dorsal horn laminae I-III; assay: Immunohistochemistry and densitometry of dorsal horn glutamate receptor expression after epidural glutamate infusion; assay type: in vivo, rat
Procedure: Immunohistochemical studies show expression of dorsal horn glutamate receptors in painful conditions involving the lower extremity in the rat. A relatively high concentration (2 mmol/L) of glutamate was infused for 72 hours (same infusion time period as in previous experiments) and densitometry was performed at 40× AMPA, NMDA and kainate for receptor expression at dorsal horn laminae I-III bilaterally, at spinal cord levels where the dorsal root ganglion input would enter the spinal cord dorsal horn, to determine whether receptor expression was increased. The microscopist was blinded to the nature of the sample.

[2] = test system: rat hind paw withdrawal (nociception); assay: Von Frey fiber behavioral test after epidural glutamate infusion; assay type: in vivo; conditions: epidural infusion 2.0-0.0002 mM for 72 hours; most prominent on day 3, also day 1
Procedure: Behavioral experiments have been completed at a wider range of concentrations. Rats are infused with epludial glutamate at concentrations of 2.0, 0.2, 0.02, 0.002 and 0.0002 mM for 72 hours (3 days). Von Frey fiber examinations were performed on left and right hind paws 24 hours before infusion and then 24, 72, and 144 hours after onset of glutamate infusion. The experimenter was blinded as to which infusate was used. Contralateral to ipsilateral differences were analyzed with respect to concentration of glutamate infusion and hours post-procedure. […] The response was most significant at the 0.02 mM concentration but present at 0.002 and 0.2 mM concentrations. […]
Behavioral Tests—The von Frey Fiber mechanical allodynia assay is performed 24 hours preoperatively and 24, 72, and 144 hours postoperatively. […] Starting with 0.6 grams of force and working up to 1, 1.4, 2, 4, 6, 8, 10, 15, and finally 26, each paw's response is recorded. […]
The protocol has the experimenter tap the bottom surface of the paw with one fiber at a time for six seconds each. […] If a response is not recognized, then the next fiber (one that elicited 1.0 grams of force) is applied, and so on in increasing order of force until a paw withdrawal response was recorded. After the initial response is recorded, the experimenter completes the testing procedure by testing the same paw with fibers in descending order of force. […]

[3] = 2 mmol/L glutamate, 72 hours, p<0.01

Question: Which “AMPA, NMDA and kainate receptor expression versus saline-infused controls” value ([1]; 2 mmol/L glutamate infused for 72 hours, dorsal horn laminae I-III, two-tailed T test) does the source give for `N[C@@H](CCC(=O)O)C(=O)O` [glutamate] here?
Answer: The value was “upregulation of expression over saline-infused controls”.

Question: And the “AMPA receptor expression ipsilateral versus contralateral” value [1, 3]?
Answer: The value was “upregulation of receptor expression ipsilateral to the side of infusion”.

Question: And the “NMDA receptor expression ipsilateral versus contralateral” value [1, 3]?
Answer: The value was “upregulation of receptor expression ipsilateral to the side of infusion”.

Question: What about the “kainate receptor expression ipsilateral versus contralateral” value ([1]; 2 mmol/L glutamate, 72 hours, p<0.05) of the same compound?
Answer: Its value is “upregulation of receptor expression ipsilateral to the side of infusion”.

Question: What about the “von Frey contralateral to ipsilateral difference (hypersensitivity)” value [2] of the same compound?
Answer: The value was “significant hypersensitivity postoperatively”.
